In assay [1] the test system is ovine QR2. Kind of assay: Ultrafiltration LC-MS binding assay for QR2.
The test system of assay [2] is Hepa1c1c7 cells. As to the kind of experiment: Cytotoxicity assay. It counts as cell-based. The following applies: Hepa-1c1c7, read-out: inhibition of Hepa1c1c7.
For assay [3], the system named is MCF-7 cells. Kind of assay: Cytotoxicity assay. The format is cell-based. As to conditions: Homo sapiens, MCF7, read-out: inhibition of MCF-7.
Assay [4] has as its target T1, quinone reductase 2 (QR2) (Homo sapiens, UniProt P16083).
T1 sequence (P16083 1-231): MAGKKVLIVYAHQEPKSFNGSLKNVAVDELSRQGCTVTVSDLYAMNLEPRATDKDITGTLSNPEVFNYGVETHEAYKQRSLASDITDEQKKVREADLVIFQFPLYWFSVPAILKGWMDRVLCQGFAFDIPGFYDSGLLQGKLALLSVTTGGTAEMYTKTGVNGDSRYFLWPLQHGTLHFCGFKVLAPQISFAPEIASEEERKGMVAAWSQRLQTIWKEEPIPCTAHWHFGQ
As to the kind of experiment: QR2 assay.

Take `COc1c(-c2ccc(O)cc2)oc2cc(O[C@@H]3O[C@H](CO[C@@H]4O[C@@H](CO)[C@H](O)[C@H]4O)[C@@H](O)[C@H](O)[C@H]3O)cc(O)c2c1=O` [Compound 10, 4′, 5,7-trihydroxy-3-methoxyflavone-7-O-α-L-arabinofuranosyl (1→6)-β-D-glucopyranoside]: the “response in LC-MS ultrafiltration binding assay with QR2” value in assay [1] was “positive response”.
Turning to `CC(=O)O[C@H]1C(=O)[C@@]2(C)[C@H]([C@H](OC(=O)c3ccccc3)[C@]3(O)C[C@H](OC(=O)[C@H](O)[C@@H](NC(=O)c4ccccc4)c4ccccc4)C(C)=C1C3(C)C)[C@]1(OC(C)=O)CO[C@@H]1C[C@@H]2O` [paclitaxel], the inhibition at 23.4 µM in assay [2] stood at 57%; in assay [3] it was 64%.
On to `O=c1c(O[C@@H]2O[C@H](CO)[C@@H](O)[C@H](O)[C@H]2O)c(-c2ccc(O)c(O)c2)oc2cc(O)cc(O)c12` [Compound 15, quercetin-3-O-β-D-glucoside], for which, in assay [4], the “ability to inhibit QR2 (in words)” value is recorded as “able to inhibit QR2”.
Consider `CC[C@]1(O)C[C@@H]2CN(CCc3c([nH]c4ccccc34)[C@@](C(=O)OC)(c3cc4c(cc3OC)N(C)[C@H]3[C@@](O)(C(=O)OC)[C@H](OC(C)=O)[C@]5(CC)C=CCN6CC[C@]43[C@@H]65)C2)C1` [vinblastine], for which the inhibition at 49.4 µM in assay [2] came out at 90%; in assay [3], 74%.
As for `COc1c(-c2ccc(O)cc2)oc2cc(O[C@@H]3O[C@H](CO)[C@@H](O)[C@H](O)[C@H]3O)cc(O)c2c1=O` [Compound 14, 4′, 5,7-trihydroxy-3-methoxyflavone-7-O-β-D-glucopyranoside], the “response in LC-MS ultrafiltration binding assay with QR2” value in assay [1] was “positive response”.

For orientation: inhibition means the drop in the measured response relative to a control, in per cent.

The values above are taken from publication PMC3069126 (Journal of natural products, 2011).
